Several values for one entry are separate records, joined by “and”; a condition that tells them apart may be missing. Equal values may be shown once. A value given as a limit tells only on which side of the number the result lay.

This is an account of results in PubChem BioAssay AID2252 (Southern Research Specialized Biocontainment Screening …, 2010).

The subject of this assay is THP-1 viability, CellTiter-Glo luminescence, 72 h. Briefly: PubChem AID 2252.
As to `O=C(Nc1ccccc1)Nc1cccc(Cl)c1`, the concentration for a half-maximal effect (EC50) is 43.7 µM.
Regarding `O=[N+]([O-])c1cccnc1S(=O)(=O)c1ccccc1`, the EC50 is 1.77 µM.
`CCCCCCCCCCCCCCCC[N+](C)(C)CCN(Cc1ccc(OC)cc1)c1ncccn1`: the EC50 was 0.36 µM.
Consider `Clc1cc(Br)ccc1OCCCNCc1ccccc1`, for which the EC50 is 14.7 µM.
Take `CCCCCCCCCCOC(=O)Cn1c(COc2ccccc2C)[n+](C)c2ccccc21`: the EC50 was 1.29 µM.
For `O=[N+]([O-])/C=C/c1cc2ccccc2[nH]1`, the EC50 is 44.9 µM.
As for `Cc1nn(Cc2ccccc2Cl)c2sc(C(=O)Nc3ccccc3N3CCOCC3)cc12`, the EC50 was 20.4 µM.
`CCc1ccc(NC(=O)C[n+]2cc(-c3ccc(C)cc3)n3c2CCC3)cc1`: the EC50 was 5.71 µM.
For `CCOc1ccc(/C=N/NC(=O)c2[nH]ncc2Br)c(O)c1` the value was 1.47 µM.
For the molecule `NC1=NC[C@H](c2ccccc2)N1CCc1cc(C(F)(F)F)cc(C(F)(F)F)c1`, the EC50 is 3.81 µM.
As for `COc1ccc(/C=N/Nc2cc(C)nc3c(C)cccc23)cc1`, the EC50 was 5.61 µM.
Turning to `Cc1oc(/N=C/c2ccc(O)cc2O)c(C#N)c1C`, the EC50 is below 0.1 µM.
In the case of `Oc1c(C(Nc2ccccn2)c2cccnc2)cc(Cl)c2cccnc12` (configuration not stated), the 50% effective concentration (EC50) is 6.1 µM.
For the molecule `CN1CCN(CCCN2c3ccccc3Sc3ccc(Cl)cc32)CC1`, the concentration giving a half-maximal response (EC50) is 14.7 µM and 10.2 µM.
Turning to `O=C(N/N=C/c1ccc([N+](=O)[O-])s1)c1cccnc1`, the concentration for a half-maximal effect (EC50) was 14.9 µM.
Regarding `CC12CN3CC(C)(CN(C1)C3c1ccc(Br)cc1O)C2` (configuration not stated), the EC50 is below 0.1 µM.
For `CC(C)N1CSC(=S)N(Cc2ccccc2)C1`, the EC50 is 12.8 µM.
Turning to `COc1c(N2CCN(C(=S)NCc3ccccc3)C(C)C2)c(F)cc2c(=O)c(C(=O)O)cn(C3CC3)c12` (configuration not stated), the half-maximal effective concentration (EC50) was 17.9 µM.
As to `CC(C(=O)NC1C=CS(=O)(=O)C1)N1C(=O)/C(=C/c2cccc(Cl)c2)SC1=S` (configuration not stated), the EC50 is 24.5 µM.
Turning to `Cc1ccc(NC(=O)COc2ccccc2CNC(C)(C)CC(C)(C)C)cc1`, the concentration for a half-maximal effect (EC50) is 9.23 µM.
Under `COc1cccc(/C=N\NC(=O)Cn2nnc3ccccc32)c1O` stands 14.6 µM; under `Cn1cnc2cc(NC(=O)c3cccs3)ccc21`, below 0.1 µM.
On to `Cc1ccc(Nc2nc(N)c3ccccc3n2)cc1Cl`, for which the concentration giving a half-maximal response (EC50) was 13.7 µM.
On to `Clc1ccc(OCCCNCc2ccccc2)c2ccccc12`, for which the EC50 was 23.4 µM.
For `COc1ccccc1C(=O)NNC1=C(C(=O)C(F)(F)F)CCC1` the value was 15.1 µM.
For `Cc1cc(C)c(OCCCCNCc2ccccc2)c(Cl)c1` the value was 12.2 µM; for `COc1cc(CNC2CCCC2)cc(Cl)c1OCc1ccccc1Cl`, 14.4 µM.
Regarding `O=C(N/N=C/c1cccc(OCc2ccccc2)c1)c1cccs1`, the 50% effective concentration (EC50) was 40.4 µM.
Under `NC1=NC2(CCCCC2)N=C(Nc2ccc(Br)cc2)N1` stands 2.39 µM.
For `CCCCn1c(NCc2ccccc2NS(=O)(=O)c2ccc(C)cc2)nc2ccccc21`, the EC50 was 24.3 µM.
`CN(Cc1ccccc1)CC(O)COc1ccc(CNCc2ccc(Cl)s2)cc1` (configuration not stated): the concentration giving a half-maximal response (EC50) was 22.2 µM.
Regarding `N=c1c2c(n(Cc3ccc(Cl)cc3)c3c1CCC3)CCC2`, the EC50 is 11.3 µM.
For `COc1ccc2sc(N(CCCN(C)C)C(=O)c3ccc(S(=O)(=O)N4CCc5ccccc5C4)cc3)nc2c1` the value was 4.42 µM; for `COc1ccc(Nc2ccnc3ccccc23)cc1`, 30.7 µM; for `OCCNc1nc(Nc2ccccc2)nc2ccccc12`, 3.06 µM.
Under `CC(NCc1ccc(Cl)c(Cl)c1)C(O)c1ccccc1` (configuration not stated) stands 30.6 µM; under `Cc1c(CCN)ccc2c1[nH]c1ccccc12`, 22.3 µM; under `O=C(CNCCC1=CCCCC1)Nc1ccc(N2CCCCCC2)cc1`, 15.6 µM.
As to `Cc1ccc(Nc2cc(C)nn2-c2nc(C)cc(=O)[nH]2)cc1`, the EC50 was 0.65 µM.
Take `Cc1c(C(=O)Nc2ccncc2)sc2nc(-c3ccc(F)cc3)cn12`: the EC50 was 19.6 µM.
With `Oc1ccccc1-c1cc(C(F)(F)C(F)F)[nH]n1`, the EC50 is 46.4 µM.
Regarding `O=C(Nc1c2ccccc2nc2ccccc12)C(Cl)(Cl)Cl`, the EC50 is 20 µM.
